Source: US20240238214A1, “NANOCONSTRUCTS AND NANOPARTICLE-MEDIATED DELIVERY OF IMMUNOGENIC CELL DEATH INDUCERS FOR ENHANCING CANCER IMMUNOTHERAPY” (Purdue Research Foundation, priority 2021, published 2024)
≈ marks a conversion by molar mass, not a printed value.

Assays:
[1] = test system: CT26 murine carcinoma, B16F10 murine carcinoma and 4T1 breast mammary carcinoma cells; experiment: HMGB1 release into medium (western blot); type: cell-based; details: treated at IC50 for 24 hours; supernatant
Experimental: After 24 hours, supernatants were collected, and a western blot immunoassay was performed to determine the amount of HMGB1 present.

CT26 cells = experiment: In vivo tumor vaccination study; set-up: species or system Balb/c mice; details: cells treated at 100× IC50 for 24 hours; three million dead cells; 500,000 live CT26 cells after 9 days
Experimental: The vaccination study, a standard test to verify bona fide ICD, was performed with PTX and CFZ (e.g., the candidate drugs) in vivo. The vaccination study involved generating tumor antigens by exposing tumor cells to lethal dose of ICD inducers. Potential ICD inducer-treated cells (i.e., the primary dose) were injected subcutaneously to immunocompetent mice. One week later, live tumor cells were injected on the contralateral side (i.e., the rechallenge), and the growth of the tumor was monitored to determine if the drug-killed tumor cells (i.e., the primary dose) can serve as a vaccine and prevent the growth of a live cell challenge.
Dead cells were collected and washed with PBS twice to remove excess amount of the drug.
Three million dead cells were injected into the right flanks of 6-week-old immunocompetent female Balb/c mice (i.e., the primary dose), the syngeneic host of CT26 cells. After 9 days, 500,000 live CT26 cells (live tumor cells) were inoculated subcutaneously in the contralateral side of the mice (i.e., the rechallenge) and tumor growth was monitored to determine the development of anti-tumor immunity.

[2] = test system: CT26 murine carcinoma, B16F10 murine carcinoma and 4T1 breast mammary carcinoma cells; experiment: CRT exposure on cell surface (flow cytometry); type: cell-based; details: treated at IC50 for 6 hours; compared to control groups
Experimental: (§1) The release of DAMPs from the treated cells were then analyzed (e.g., CRT exposure was measured by flow cytometry, HMGB1 was measured by quantifying western blot, and ATP was measured by ATP determination kit).
After 6 hours, cells were washed with PBS and fixed with 4% […] (PFA). Fixed cells were incubated with FITC-labeled CRT antibodies. Cells were analyzed by the Accuri C6 flow cytometer to determine the population of CRT-positive cells.

[3] = test system: CT26 cells phagocytosed by JAWSII DCs; experiment: Phagocytosis assay; type: cell-based, murine; details: CT26 treated with IC50 of drug, co-cultured with JAWSII for 24 hours
Experimental: A phagocytosis assay was performed to observe whether cells killed by ICD inducers will be taken up by dendritic cells (DCs).
CT26 cells were stained with Cell Tracker Green for 30 mins (0.5 μM) and washed once with cold serum free DMEM. CT26 cells were incubated overnight in 10% FBS media to allow any unbound dye to be inactivated. CT26 cells were collected and seeded (150,000 cells/well) in 6 wells plate for 24 hours. JAWSII cells were collected and stained with Cell Tracker Deep Red for 30 mins (0.5 μM) and washed once with cold serum free RPMI. JAWSII cells were incubated overnight in 10% FBS media to allow any unbound dye to be inactivated. […] After the treatment, CT26 containing 6 wells plate was centrifuged at 500 g×8 mins. Supernatant was aspirated to remove any remaining drugs. JAWSII cells (150,000 cells/well) were added to CT26, and cells were co-cultured for 24 hours. The co-cultured cells were collected, resuspended in the staining buffer, and analyzed by the Accuri C6 flow cytometer.

[4] = cited from earlier work
physchem = details: aqueous with cosolvent or surfactant or cyclodextrin
CT26 murine carcinoma = experiment: Cytotoxicity by MTT assay, CT26; type: cell-based; details: Mus musculus; CT26 cells
Experimental: (§2) As the nanoparticles hereof can be used to deliver ICD inducers to create tumor antigens, which need to be taken up by APCs, in certain embodiments, it is important for the formulations to kill tumor cells, while saving the host immune cells.
Cytotoxicity was assessed by the MTT assay. CT26 cells were seeded in 96 wells with 3,000 cells/well and cultured until 30% confluency. Cells were treated with varying concentrations of Drug, Drug@NP, Drug@NP-pD, Drug@NP-pD-ATP for 24 hours. After 24 hours, media was replaced, the cells were incubated for an additional 24 hours, and an MTT assay was performed to measure the number of viable cells present (see FIGS. 13A and 14A).

[5] = test system: CT26 murine carcinoma, B16F10 murine carcinoma and 4T1 breast mammary carcinoma cells; experiment: ATP secretion into medium (ATP determination kit); type: cell-based; details: treated at IC50 for 24 hours; supernatant
Experimental: as §1
After 24 hours, supernatants were collected, and the amount of ATP in the supernatant was measured with ATP determination kit.

JAWSII DCs = experiment: Cytotoxicity by MTT assay, JAWSII; type: cell-based, murine; details: 96 hours
Experimental: as §2
For JAWSII cells, JAWSII cells were seeded in 96 wells with 20,000 cells/well.

apyrase = molecular target: T1, apyrase (Solanum tuberosum, UniProt P80595); experiment: ATP level after incubation with apyrase (ATP bioluminescence assay); type: biochemical; details: 10 μM ATP, 5 units/mL apyrase, 37° C., 10 minutes
T1 construct: purchased Thermo Fisher Scientific Inc. (Waltham, MA)
T1 sequence (P80595 1-454): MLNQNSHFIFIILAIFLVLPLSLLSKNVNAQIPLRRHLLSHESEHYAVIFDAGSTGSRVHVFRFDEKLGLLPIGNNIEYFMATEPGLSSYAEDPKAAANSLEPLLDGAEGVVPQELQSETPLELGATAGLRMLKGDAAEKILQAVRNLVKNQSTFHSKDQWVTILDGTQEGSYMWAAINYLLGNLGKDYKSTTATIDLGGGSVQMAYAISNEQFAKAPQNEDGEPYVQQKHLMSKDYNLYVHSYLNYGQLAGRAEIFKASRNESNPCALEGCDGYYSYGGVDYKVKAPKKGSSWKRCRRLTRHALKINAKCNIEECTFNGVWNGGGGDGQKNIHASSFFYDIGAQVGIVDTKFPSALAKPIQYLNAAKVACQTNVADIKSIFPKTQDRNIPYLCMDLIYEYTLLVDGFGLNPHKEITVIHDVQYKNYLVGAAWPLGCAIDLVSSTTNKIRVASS
Experimental: Further, to confirm the activity of apyrase against ATP, 10 μM ATP was incubated with or without 5 units/mL apyrase in 37° C. for 10 minutes. The ATP level after incubation was measured by ATP bioluminescence assay.

JAWSII cells = experiment: Stability against apyrase (DC migration assay in Transwell); type: cell-based, murine; details: 10 μM ATP, 0.5 units of apyrase, 4 hours
Experimental: To screen the effect of degrading enzyme to the nanoparticle-bound ATP, apyrase (a CD39 equivalent) was co-incubated with ATP or NP-pD-ATP, and a DC migration assay was performed in a Transwell (FIG. 9A). For the migration assay, 100 μL of 2×10^5 JAWSII cells, suspended in media, were added to the top of the Transwell (8 μm pore size). 600 μL of media containing 10 μM ATP conjugated nanoparticle was added to the bottom well (with or without 0.5 units of apyrase). Cells were incubated in 37° C. for 4 hours. Bottom media was collected to analyze the number of cells migrated by flow cytometry.

| SMILES | HMGB1 release [1] | tumor growth after live CT26 rechallenge in mice vaccinated with drug-treated dead cells (CT26 cells) | CRT exposure [2] | uptake of CT26 to the dendritic cells [3] | water solubility [4] | solubility (physchem) | IC50 (CT26 murine carcinoma) | ATP secretion [5] | concentration with sudden decrease of DC viability (JAWSII DCs) | ATP level after incubation with apyrase (apyrase) | chemotactic ability (DC migration) in the presence of apyrase (JAWSII cells) |
| --- | --- | --- | --- | --- | --- | --- | --- | --- | --- | --- | --- |
| O=C1[O][Pt]2([NH][C@@H]3CCCC[C@H]3[NH]2)[O]C1=O [OXA, oxaliplatin] | induced the release of HMGB1 | tumors did not grow | – | – | – | – | – | – | – | – | – |
| Nc1ccn([C@@H]2O[C@H](CO)[C@@H](O)C2(F)F)c(=O)n1 [GEM, gemcitabine] | failed to induce HMGB1 secretion | Tumors grew in all animals | failed to induce CRT exposure | – | – | – | – | – | – | – | – |
| CC(C)C[C@H](NC(=O)[C@H](CCc1ccccc1)NC(=O)CN1CCOCC1)C(=O)N[C@@H](Cc1ccccc1)C(=O)N[C@@H](CC(C)C)C(=O)[C@@]1(C)CO1 [CFZ, carfilzomib] | induced the release of HMGB1 | tumors did not grow | induced the exposure of CRT | significantly increased the uptake of CT26 to the dendritic cells | 0.7 to 3.6 µg/mL | 9 µg/mL (≈ 12.5 µM) | 15 nM | caused the secretion of ATP | – | – | – |
| CC(=O)O[C@H]1C(=O)[C@@]2(C)[C@H]([C@H](OC(=O)c3ccccc3)[C@]3(O)C[C@H](OC(=O)[C@H](O)[C@@H](NC(=O)c4ccccc4)c4ccccc4)C(C)=C1C3(C)C)[C@]1(OC(C)=O)CO[C@@H]1C[C@@H]2O [PTX, paclitaxel] | induced the release of HMGB1 | tumors did not grow | induced the exposure of CRT | significantly increased the uptake of CT26 to the dendritic cells | – | – | 250 nM | caused the secretion of ATP | ≥ 30 µM | – | – |
| Nc1ncnc2c1ncn2[C@@H]1O[C@H](COP(=O)(O)OP(=O)(O)OP(=O)(O)O)[C@@H](O)[C@H]1O [free ATP, adenosine triphosphate] | – | – | – | – | – | – | – | – | – | not detectable | completely abolished the chemotactic ability of free ATP |
